From US4629683A, “Processing silver halide photographic material with blocked agent and hydroxylamine” (Fuji Photo Film Co., Ltd., priority 1983, dated 1986)

experiment: Acceleration effect of hydroxylamine upon release of antifoggant from precursor (HPLC, half-life); assay type: physicochemical; parameters: key to Acceleration Effect: ratio of half-life without hydroxylamine to half-life with it; details: in words; pH 10.0 and 11.0
Description: Measurement of Acceleration Effect of Hydroxylamine upon Release of Antifoggant from Precursor Thereof
(§1) The resulting solution was added to a mixture of 16 ml of acetonitrile and 20 ml of Britton-Robinson buffer solution (Britton-Robinson buffer solution can be prepared by mixing phosphoric acid, boric acid, acetic acid and sodium hydroxide, and of which pH can be adjusted within a pH range of 1.81 to 11.98), and allowed to react (wherein the pH of the solution was controlled by the buffer solution). After a definite time, acetic acid was added to lower the pH of the reaction mixture to 6.25 and thereby the reaction stopped. The antifoggant released was determined using high-speed liquid chromatography and therefrom the rate constant of the pseudo first-order reaction and, further, the half-life t1/2 were evaluated.
(§2) The acceleration effect of hydroxylamine was determined by comparison of the half-life value in the hydroxylamine present present case and that in the hydroxylamine-absent case and, further, compared with effects of known precursors of the kind which release antifoggants without ring-cleavage (Comparison Precursor (A-1) and Comparison Precursor (A-2)).

| SMILES | change in releasing speed due to addition of hydroxylamine |
| --- | --- |
| CC(CC#N)Sc1nnnn1-c1ccccc1 (centres unmarked) [Comparison Precursor (A-2), reference compound] | reduced the releasing speed rather than accelering it, or hardly showed any appreciable change in the releasing speed |
| O=C1CC(Sc2nnnn2-c2ccccc2)C(=O)N1c1ccccc1 (centres unmarked) [Comparison Precursor (A-1), reference compound] | reduced the releasing speed rather than accelering it, or hardly showed any appreciable change in the releasing speed |

same assay, conditions: pH 10.0, half-life hydroxylamine absent vs present

| Acceleration Effect | SMILES |
| --- | --- |
| 37 | O=C1c2ccccc2S(=O)(=O)N1CSc1nnnn1-c1ccccc1 [(I)-(15)] |
| 35 | CNC(=O)Nc1cccc(-n2nnnc2SCN2C(=O)c3ccccc3S2(=O)=O)c1 [(I)-(16)] |
| 5.2 | O=C1CCC(=O)N1CSc1nnnn1-c1ccccc1 [(II)-(1)] |
| 1.1 | CC(CC#N)Sc1nnnn1-c1ccccc1 (centres unmarked) [Comparison Precursor (A-2), reference compound] |
| 25 | CN(C(=O)Sc1nnnn1-c1ccccc1)c1cccc2c1COC2=O [(V)-(1)] |
| 27 | O=C1OC(Sc2nnnn2-c2ccccc2)(c2ccccc2)c2ccc([N+](=O)[O-])cc21 (centres unmarked) [(III)-(14)] |
| 8.1 | O=C1c2ccc([N+](=O)[O-])cc2C(=O)N1CSc1nnnn1-c1ccccc1 [(I)-(10)] |
| 5.0 | CN1C(=O)c2cccc(N(C)C(=O)Sc3nnnn3-c3ccccc3)c2C1=O [(IV)-(2)] |
| 29 | O=C1OC(Sc2nnnn2-c2ccccc2)c2ccccc21 (centres unmarked) [(III)-(1)] |
| 0.61 | O=C1CC(Sc2nnnn2-c2ccccc2)C(=O)N1c1ccccc1 (centres unmarked) [Comparison Precursor (A-1), reference compound] |

same assay, conditions: pH 11.0, half-life hydroxylamine absent vs present

| Acceleration Effect | SMILES |
| --- | --- |
| 16 | O=C1c2ccccc2S(=O)(=O)N1CSc1nnnn1-c1ccccc1 [(I)-(15)] |
| 18 | CNC(=O)Nc1cccc(-n2nnnc2SCN2C(=O)c3ccccc3S2(=O)=O)c1 [(I)-(16)] |
| 2.5 | O=C1CCC(=O)N1CSc1nnnn1-c1ccccc1 [(II)-(1)] |
| 1.1 | CC(CC#N)Sc1nnnn1-c1ccccc1 (centres unmarked) [Comparison Precursor (A-2), reference compound] |
| 27 | CN(C(=O)Sc1nnnn1-c1ccccc1)c1cccc2c1COC2=O [(V)-(1)] |
| 25 | O=C1OC(Sc2nnnn2-c2ccccc2)(c2ccccc2)c2ccc([N+](=O)[O-])cc21 (centres unmarked) [(III)-(14)] |
| 3.0 | O=C1c2ccc([N+](=O)[O-])cc2C(=O)N1CSc1nnnn1-c1ccccc1 [(I)-(10)] |
| 4.1 | CN1C(=O)c2cccc(N(C)C(=O)Sc3nnnn3-c3ccccc3)c2C1=O [(IV)-(2)] |
| 30 | O=C1OC(Sc2nnnn2-c2ccccc2)c2ccccc21 (centres unmarked) [(III)-(1)] |
| 0.82 | O=C1CC(Sc2nnnn2-c2ccccc2)C(=O)N1c1ccccc1 (centres unmarked) [Comparison Precursor (A-1), reference compound] |

same assay, conditions: release of antifoggant, pH 10.0, hydroxylamine absent

| t1/2 Hydroxylamine Absent | SMILES |
| --- | --- |
| 3,700 sec | O=C1c2ccccc2S(=O)(=O)N1CSc1nnnn1-c1ccccc1 [(I)-(15)] |
| 4,100 sec | CNC(=O)Nc1cccc(-n2nnnc2SCN2C(=O)c3ccccc3S2(=O)=O)c1 [(I)-(16)] |
| 5,700 sec | O=C1CCC(=O)N1CSc1nnnn1-c1ccccc1 [(II)-(1)] |
| 25,000 sec | CC(CC#N)Sc1nnnn1-c1ccccc1 (centres unmarked) [Comparison Precursor (A-2), reference compound] |
| 53,000 sec | CN(C(=O)Sc1nnnn1-c1ccccc1)c1cccc2c1COC2=O [(V)-(1)] |
| 9,000 sec | O=C1OC(Sc2nnnn2-c2ccccc2)(c2ccccc2)c2ccc([N+](=O)[O-])cc21 (centres unmarked) [(III)-(14)] |
| 320 s | O=C1c2ccc([N+](=O)[O-])cc2C(=O)N1CSc1nnnn1-c1ccccc1 [(I)-(10)] |
| 3,500 sec | CN1C(=O)c2cccc(N(C)C(=O)Sc3nnnn3-c3ccccc3)c2C1=O [(IV)-(2)] |
| 27,000 sec | O=C1OC(Sc2nnnn2-c2ccccc2)c2ccccc21 (centres unmarked) [(III)-(1)] |
| 2,600 sec | O=C1CC(Sc2nnnn2-c2ccccc2)C(=O)N1c1ccccc1 (centres unmarked) [Comparison Precursor (A-1), reference compound] |

same assay, conditions: release of antifoggant, pH 10.0, hydroxylamine present (3.8×10^-4 mole)

| t1/2 Hydroxylamine Present | SMILES |
| --- | --- |
| 100 s | O=C1c2ccccc2S(=O)(=O)N1CSc1nnnn1-c1ccccc1 [(I)-(15)] |
| 120 s | CNC(=O)Nc1cccc(-n2nnnc2SCN2C(=O)c3ccccc3S2(=O)=O)c1 [(I)-(16)] |
| 1,200 sec | O=C1CCC(=O)N1CSc1nnnn1-c1ccccc1 [(II)-(1)] |
| 23,000 sec | CC(CC#N)Sc1nnnn1-c1ccccc1 (centres unmarked) [Comparison Precursor (A-2), reference compound] |
| 2,100 sec | CN(C(=O)Sc1nnnn1-c1ccccc1)c1cccc2c1COC2=O [(V)-(1)] |
| 340 s | O=C1OC(Sc2nnnn2-c2ccccc2)(c2ccccc2)c2ccc([N+](=O)[O-])cc21 (centres unmarked) [(III)-(14)] |
| 38 s | O=C1c2ccc([N+](=O)[O-])cc2C(=O)N1CSc1nnnn1-c1ccccc1 [(I)-(10)] |
| 700 s | CN1C(=O)c2cccc(N(C)C(=O)Sc3nnnn3-c3ccccc3)c2C1=O [(IV)-(2)] |
| 960 s | O=C1OC(Sc2nnnn2-c2ccccc2)c2ccccc21 (centres unmarked) [(III)-(1)] |
| 4,200 sec | O=C1CC(Sc2nnnn2-c2ccccc2)C(=O)N1c1ccccc1 (centres unmarked) [Comparison Precursor (A-1), reference compound] |

same assay, conditions: release of antifoggant, pH 11.0, hydroxylamine absent

| t1/2 Hydroxylamine Absent | SMILES |
| --- | --- |
| 470 s | O=C1c2ccccc2S(=O)(=O)N1CSc1nnnn1-c1ccccc1 [(I)-(15)] |
| 490 s | CNC(=O)Nc1cccc(-n2nnnc2SCN2C(=O)c3ccccc3S2(=O)=O)c1 [(I)-(16)] |
| 650 s | O=C1CCC(=O)N1CSc1nnnn1-c1ccccc1 [(II)-(1)] |
| 2,900 sec | CC(CC#N)Sc1nnnn1-c1ccccc1 (centres unmarked) [Comparison Precursor (A-2), reference compound] |
| 6,200 sec | CN(C(=O)Sc1nnnn1-c1ccccc1)c1cccc2c1COC2=O [(V)-(1)] |
| 980 s | O=C1OC(Sc2nnnn2-c2ccccc2)(c2ccccc2)c2ccc([N+](=O)[O-])cc21 (centres unmarked) [(III)-(14)] |
| 37 s | O=C1c2ccc([N+](=O)[O-])cc2C(=O)N1CSc1nnnn1-c1ccccc1 [(I)-(10)] |
| 420 s | CN1C(=O)c2cccc(N(C)C(=O)Sc3nnnn3-c3ccccc3)c2C1=O [(IV)-(2)] |
| 3,300 sec | O=C1OC(Sc2nnnn2-c2ccccc2)c2ccccc21 (centres unmarked) [(III)-(1)] |
| 310 s | O=C1CC(Sc2nnnn2-c2ccccc2)C(=O)N1c1ccccc1 (centres unmarked) [Comparison Precursor (A-1), reference compound] |

same assay, conditions: release of antifoggant, pH 11.0, hydroxylamine present (3.8×10^-4 mole)

| t1/2 Hydroxylamine Present | SMILES |
| --- | --- |
| 29 s | O=C1c2ccccc2S(=O)(=O)N1CSc1nnnn1-c1ccccc1 [(I)-(15)] |
| 27 s | CNC(=O)Nc1cccc(-n2nnnc2SCN2C(=O)c3ccccc3S2(=O)=O)c1 [(I)-(16)] |
| 260 s | O=C1CCC(=O)N1CSc1nnnn1-c1ccccc1 [(II)-(1)] |
| 2,700 sec | CC(CC#N)Sc1nnnn1-c1ccccc1 (centres unmarked) [Comparison Precursor (A-2), reference compound] |
| 230 s | CN(C(=O)Sc1nnnn1-c1ccccc1)c1cccc2c1COC2=O [(V)-(1)] |
| 39 s | O=C1OC(Sc2nnnn2-c2ccccc2)(c2ccccc2)c2ccc([N+](=O)[O-])cc21 (centres unmarked) [(III)-(14)] |
| 12 s | O=C1c2ccc([N+](=O)[O-])cc2C(=O)N1CSc1nnnn1-c1ccccc1 [(I)-(10)] |
| 100 s | CN1C(=O)c2cccc(N(C)C(=O)Sc3nnnn3-c3ccccc3)c2C1=O [(IV)-(2)] |
| 110 s | O=C1OC(Sc2nnnn2-c2ccccc2)c2ccccc21 (centres unmarked) [(III)-(1)] |
| 380 s | O=C1CC(Sc2nnnn2-c2ccccc2)C(=O)N1c1ccccc1 (centres unmarked) [Comparison Precursor (A-1), reference compound] |

experiment: Acceleration effect of hydroxylamine upon release of pyrazolidones from precursors (half-life); assay type: physicochemical; details: pH 10.0, half-life hydroxylamine absent vs present
Description: as §1, §2
Measurement of Acceleration Effect on Hydroxylamine upon Release of Pyrazolidones from Precursors Thereof
The acceleration effects of hydroxylamine upon release of pyrazolidones were determined in the same way as in Example 1, and the results obtained are shown in Table 2 below.

| Acceleration Effect | SMILES |
| --- | --- |
| 8.2 | O=C1c2ccccc2C(=O)N1COC1=NN(c2ccccc2)CC1 [Compound (I)-(14), 1-phenyl-3-(N-phthalimidomethyloxy)-2-pyrazoline] |
| 29 | O=C1OC(N2C(=O)CCN2c2ccccc2)c2ccc([N+](=O)[O-])cc21 (centres unmarked) [(III)-(7)] |
| 19 | CC1(C)CN(c2ccccc2)N(CN2C(=O)c3ccccc3S2(=O)=O)C1=O [(I)-(19)] |
| 6.3 | CN1C(=O)c2cccc(N(C)C(=O)OC3=NN(c4ccccc4)CC3(C)CO)c2C1=O (centres unmarked) [(IV)-(5)] |
| 21 | O=C1CCN(c2ccccc2)N1CN1C(=O)c2ccccc2S1(=O)=O [Compound (I)-(18), N-(1-phenyl-3-pyrazolidinone-2-ylmethyl)saccharin] |
| 3.6 | O=C1c2ccccc2C(=O)N1CN1C(=O)CCN1c1ccccc1 [Compound (I)-(13), 1-phenyl-2-(N-phthalimidomethyl)-3-pyrazolidinone] |

same assay, conditions: release of pyrazolidones, pH 10.0, hydroxylamine absent

| t1/2 Hydroxylamine Absent | SMILES |
| --- | --- |
| 3,200 sec | O=C1c2ccccc2C(=O)N1COC1=NN(c2ccccc2)CC1 [Compound (I)-(14), 1-phenyl-3-(N-phthalimidomethyloxy)-2-pyrazoline] |
| 13,000 sec | O=C1OC(N2C(=O)CCN2c2ccccc2)c2ccc([N+](=O)[O-])cc21 (centres unmarked) [(III)-(7)] |
| 7,200 sec | CC1(C)CN(c2ccccc2)N(CN2C(=O)c3ccccc3S2(=O)=O)C1=O [(I)-(19)] |
| 5,600 sec | CN1C(=O)c2cccc(N(C)C(=O)OC3=NN(c4ccccc4)CC3(C)CO)c2C1=O (centres unmarked) [(IV)-(5)] |
| 9,300 sec | O=C1CCN(c2ccccc2)N1CN1C(=O)c2ccccc2S1(=O)=O [Compound (I)-(18), N-(1-phenyl-3-pyrazolidinone-2-ylmethyl)saccharin] |
| 9,400 sec | O=C1c2ccccc2C(=O)N1CN1C(=O)CCN1c1ccccc1 [Compound (I)-(13), 1-phenyl-2-(N-phthalimidomethyl)-3-pyrazolidinone] |

same assay, conditions: release of pyrazolidones, pH 10.0, hydroxylamine present

| t1/2 Hydroxylamine Present | SMILES |
| --- | --- |
| 390 s | O=C1c2ccccc2C(=O)N1COC1=NN(c2ccccc2)CC1 [Compound (I)-(14), 1-phenyl-3-(N-phthalimidomethyloxy)-2-pyrazoline] |
| 450 s | O=C1OC(N2C(=O)CCN2c2ccccc2)c2ccc([N+](=O)[O-])cc21 (centres unmarked) [(III)-(7)] |
| 370 s | CC1(C)CN(c2ccccc2)N(CN2C(=O)c3ccccc3S2(=O)=O)C1=O [(I)-(19)] |
| 880 s | CN1C(=O)c2cccc(N(C)C(=O)OC3=NN(c4ccccc4)CC3(C)CO)c2C1=O (centres unmarked) [(IV)-(5)] |
| 440 s | O=C1CCN(c2ccccc2)N1CN1C(=O)c2ccccc2S1(=O)=O [Compound (I)-(18), N-(1-phenyl-3-pyrazolidinone-2-ylmethyl)saccharin] |
| 2,600 sec | O=C1c2ccccc2C(=O)N1CN1C(=O)CCN1c1ccccc1 [Compound (I)-(13), 1-phenyl-2-(N-phthalimidomethyl)-3-pyrazolidinone] |
